The values that follow come from patent publication US5635193A, “Stability of azadirachtin-containing solid” (Thermo Trilogy Corporation, priority 1995, dated 1997).

Structures are written as SMILES.

The nature of series [1]: Storage stability at 55° C. of dried lot 14 solid with added water or ethanol (Example 3, Table 3). The series is classed as physicochemical. To be noted: 55° C. for a short period such as 24 hours. From the text: Three values are given in the tables for each azadirachtin level: The amount (in grams) of azadirachtin A is given before the slash. The amount of azadirachtin B (in grams) is given after the slash. The total azadirachtin amount is given in parentheses. Ka, Kb, and Kt refer to the first order decomposition rate constants (with units of 1/day) for azadirachtin A, azadirachtin B, and total azadirachtin, respectively.
Dry solid azadirachtin was obtained by drying a solid azadirachtin sample from Lot 14 (014) in an oven at 55° C. for 24 hours in an unsealed vessel until the volatile content of the solid was less than 0.5%. The dried sample was then split into 6 subsamples. One dry subsample (014D) was used without further treatment. A second subsample (014W1) received 1% by weight of H2 O. A third subsample (014W4) received 4% by weight H2 O. Subsamples 4, 5 and 6 received 1, 3, and 5% by weight of ethanol, respectively and were designated 014E1, 014E3, and 014E5. The subsamples were placed in multiple tightly sealed vials at 55° C. Individual vials were removed periodically to assay for azadirachtin.

In series [2] the test system is various insect, mite, nematode, etc. orders. To be noted: cited from earlier work.

With `C/C=C(\C)C(=O)O[C@H]1C[C@@H](OC(C)=O)[C@@]2(C(=O)OC)CO[C@H]3[C@@H](O)[C@@](C)([C@]45O[C@@]4(C)[C@H]4C[C@@H]5O[C@@H]5OC=C[C@@]54O)[C@H]4[C@]1(CO[C@]4(O)C(=O)OC)[C@@H]32` [azadirachtin], the “effect of heating upon azadirachtin stability” value in series [1] is listed as “little or no effect upon azadirachtin stability”. Besides, the “biological activity (in words)” value in series [2] was “feeding inhibition and growth disruption”.
